Source: publication PMC8398231 (Pharmaceutics, 2021)

Experiments:
[1] = Lipophilicity, water-octanol partition/distribution coefficient method; format: physicochemical; details: 1-octanol/phosphate buffered saline; shake-flask 1-octanol/PBS pH 7.4 (500 µL each), 3.7 MBq, stirred 5 min at room temperature, centrifuged, gamma counter, decay-corrected; three experiments in triplicate, mean ± SD
Experimental: The lipophilicity of the [^68Ga]Ga-RM2 was assessed by the water-octanol partition/distribution coefficient method. In a centrifuge tube 500 µL of 1-octanol was added to 500 µL of phosphate buffered saline (pH 7.4) containing the radiolabeled peptide (3.7 MBq; ≈10 µL). After equilibrium, the solution was vigorously stirred for 5 min at room temperature and subsequently centrifuged (4000 rpm, 3 min) to yield two immiscible layers. Aliquots of 100 µL were taken from each layer and the radioactivity in the samples was determined by a gamma counter (Gamma Wizard2 Counter 2480; Perkin Elmer, Villebon sur Yvette, France; acquisition time of one minute, energy window centered on the peak of 511 keV). The Log D7.4 was determined by the Log ratio (cpm (counts per minute) organic phase/cpm aqueous phase). The cpm values were decay-corrected. Experiments were performed three times in triplicates.

PC-3 cells = assay: Cellular efflux of internalized radioactivity from PC-3 cells; format: cell-based
Experimental: For in vitro experiments, PC-3 cells were cultured in DMEM/F12 and seeded in 6-well plates at a density of 10^6 cells per well 18 h before carrying out the experiments and incubated overnight with complete medium.
Three minutes before the end of the incubation time, internalization was stopped by removing medium and washing cells with ice-cold PBS. The membrane-bound fraction was removed by rinsing cells with 2 mL acetate buffer (pH = 5; 20 mM) for 2 min and cells were then rinsed ice-cold PBS. Next, 2 mL of complete medium was then added to each well, and PC-3 cells were incubated at 37 °C for 5, 15, 30 and 45 min. At each time point, efflux was stopped by removing medium and cells were rinsed twice with ice-cold PBS. Finally, the cells were treated with 1M NaOH and the radioactivity was measured using a gamma counter.

PC-3 = details: other kit formulation without scavenger and bulking agent; cited from earlier work
Description: Another kit formulation of RM2 has been developed but without a scavenger and a bulking agent for lyophilization. […] Therefore, our innovative formulation provides longer stability at higher temperature and higher uptake in GRP-R-expressing PC-3 cells.

[2] = Stability of radiolabeled kit in vehicle (radiochemical purity over time); format: physicochemical; details: final formulation (acetate buffer, PBS, 0.9% NaCl)
Experimental: For process validation, the [^68Ga]Ga-RM2 kits were subjected to full quality control. […] Molar activity was calculated after linear regression of the calibration curve with [^natGa]Ga-RM2 (Life Molecular Imaging). The pH was determined using a pH-meter. Volumetric activity was determined by dividing activity obtained by the final volume. The [^68Ga]Ga-RM2 was also subjected to endotoxin testing (Charles Rivers), sterility testing and radionuclidic purity and filter integrity tests. Results were then compared to the production capacity provided by the module route currently running in our NCT03604757 and NCT03606837 studies.
After optimization, ^68Ga radiolabeling of the RM2 kits was carried out in three consecutive batches, and they all complied with the requirements of the monograph of the European Pharmacopoeia (as described for [^68Ga]Ga-edotreotide) (Figure 4 and Table 1). The evolution of the radiochemical purity over time was also checked.

GRP-R = target: T1, GRP-R (Homo sapiens, UniProt P30550); assay: Intracellular calcium mobilization assay in PC-3 cells; format: cell-based; details: fluo-8AM, 10^-11 M to 10^-5 M, room temperature, pH 7.4
T1 construct: higher uptake in GRP-R-expressing PC-3 cells; endogenous in cells; host or cells: PC-3 cells
T1 sequence (P30550 whole entry): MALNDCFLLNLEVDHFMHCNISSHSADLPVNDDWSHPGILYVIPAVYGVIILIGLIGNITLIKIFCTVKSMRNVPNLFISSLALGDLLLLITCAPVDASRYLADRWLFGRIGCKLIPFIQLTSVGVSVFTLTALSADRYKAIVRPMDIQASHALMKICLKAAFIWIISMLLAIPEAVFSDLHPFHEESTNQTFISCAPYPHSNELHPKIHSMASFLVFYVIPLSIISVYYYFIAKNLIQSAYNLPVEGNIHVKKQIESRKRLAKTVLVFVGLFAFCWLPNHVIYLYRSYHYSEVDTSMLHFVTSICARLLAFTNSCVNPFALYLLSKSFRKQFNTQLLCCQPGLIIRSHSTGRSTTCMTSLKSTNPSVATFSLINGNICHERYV
Experimental: For calcium imaging assays, PC-3 cells were cultured as previously described. The day before the experimentation, cells were grown on 15 mm Thermanox® glass slides (Thermofischer, Waltham, MA, USA,) in 6-wells plates at the density of 5.10^5 cells in 500 µL culture medium. Glass slides were individually loaded for 30 min in dark into 500 µL loading solution containing 10 µL fluo-8AM, 10 µL pluronic acid, 50 µL probenecid and 430 µL DMEM/F12 medium. […] A 10-min delay was applied to remove extracellular fluo-8AM and to enable fluo-8AM intracellular hydrolysis. Growing concentrations (10^−11 M to 10^−5 M) of [^natGa]Ga-RM2 were added via a rapid perfusion system.

Row | logD [1] | Stability in vehicle (radiochemical purity over time) [2] | Compound | Efflux of the internalized activity (PC-3 cells; 30 min internalization at 37 °C, acid wash, then 5 min at 37 °C in complete medium) | Efflux (%) (PC-3 cells; 45 min post-internalization at 37 °C) | Specific uptake in PC-3 (% of cell-associated radioactivity) (PC-3) | Intracellular calcium mobilization (ΔF/F) (GRP-R)
1 | -2.54 ± 0.04 | stable in vehicle up to 3 h | CC(C)C[C@H](NC(=O)C[C@H](O)[C@H](CC(C)C)NC(=O)[C@H](Cc1c[nH]cn1)NC(=O)CNC(=O)[C@@H](NC(=O)[C@H](C)NC(=O)[C@H](Cc1c[nH]c2ccccc12)NC(=O)[C@H](CCC(N)=O)NC(=O)[C@@H](Cc1ccccc1)NC(=O)CN1CCC(NC(=O)CN2CCN(CC(=O)O)CCN(CC(=O)O)CCN(CC(=O)O)CC2)CC1)C(C)C)C(N)=O [[^68Ga]Ga-RM2, metal not drawn] | 64.3 ± 6.5% | 70.8 ± 11.1% | 5% | 
2 |  |  | bombesin |  |  |  | effectively induced calcium mobilization in a dose-dependent manner
